The test system of one assay is CD86 surface expression on CD19+/7AAD- total mouse splenocytes stimulated with IgM. Description: CD86 Inhibition Assay. Type of assay: cell-based. To be noted: Splenocyte; Balb/c mouse splenocytes, IgM stimulation, 24 hr. Here is the method:
A CD86 Inhibition assay can be conducted on Formula I compounds for the inhibition of B cell activity using total mouse splenocytes purified from spleens of 8-16 week old Balb/c mice (Example 905).
A generalized procedure for a standard assay for the inhibition of B cell activity that can be used to test Formula I compounds is as follows. Total mouse splenocytes are purified from spleens of 8-16 week old Balb/c mice by red blood cell lysis (BD Pharmingen #555899). Testing compounds are diluted to 0.5% DMSO and incubated with 1.25×10^6 splenocytes in a final volume of 200 μl in flat clear bottom plates (Falcon 353072) for 60 min at 37° C. Cells are then stimulated with the addition of 15 μg/ml IgM (Jackson ImmunoResearch 115-006-020), and incubated for 24 hr at 37° C., 5% CO2. Following the 24 hr incubation, cells are transferred to conical bottom clear 96-well plates and pelleted by centrifugation at 1200×g×5 min. Cells are preblocked by CD16/CD32 (BD Pharmingen #553142), followed by triple staining with CD19-FITC (BD Pharmingen #553785), CD86-PE (BD Pharmingen #553692), and 7AAD (BD Pharmingen #51-68981E). Cells are sorted on a BD FACSCalibur and gated on the CD19^+/7AAD^− population. The levels of CD86 surface expression on the gated population is measured versus test compound concentration. Exemplary results are in Table 3.
Take `Cn1cc(-c2cccc(N3Cc4cc(C(C)(C)C)ccc4C3=O)c2CO)cc(Nc2ccncn2)c1=O` [Compound 107, 5-tert-butyl-2-(2-(hydroxymethyl)-3-(1-methyl-6-oxo-5-(pyrimidin-4-ylamino)-1,6-dihydropyridin-3-yl)phenyl)isoindolin-1-one]: it took 74 nM to reach a half-maximal effect (EC50).
The same measure, in the same setting: with `Cn1cc(-c2cccc(N3Cc4cc(C(C)(C)C)ccc4C3=O)c2CO)nc(Nc2cnn(C3CC3)c2)c1=O` [Compound 109, 5-tert-butyl-2-(3-(6-(1-cyclopropyl-1H-pyrazol-4-ylamino)-4-methyl-5-oxo-4,5-dihydropyrazin-2-yl)-2-(hydroxymethyl)phenyl) isoindolin-1-one] the figure was 113 nM; with `Cn1cc(-c2cccc(N3Cc4cc(C(C)(C)C)ccc4C3=O)c2CO)cc(Nc2ccc(C3CNC3)cn2)c1=O` [Compound 117, 2-(3-(5-(5-(azetidin-3-yl)pyridin-2-ylamino)-1-methyl-6-oxo-1,6-dihydropyridin-3-yl)-2-(hydroxymethyl)phenyl)-5-tert-butylisoindolin-1-one], 154 nM.
`Cc1c(-c2cn(C)c(=O)c(Nc3ccc(C4C(=O)N(C)CCN4C)cc3)n2)cccc1N1Cc2cc(C(C)(C)C)ccc2C1=O` (centres unmarked) [Compound 127, 5-tert-butyl-2-[3-(6-{[4-(1,4-dimethyl-3-oxopiperazin-2-yl)phenyl]amino}-4-methyl-5-oxo-4,5-dihydropyrazin-2-yl)-2-methylphenyl]-2,3-dihydro-1H-isoindol-1-one]: the midpoint of the response, the EC50, lay at 498 nM.
The compound `Cn1cc(-c2ccc(F)c(N3Cc4cc(C(C)(C)C)sc4C3=O)c2CO)cc(Nc2ccncn2)c1=O` [Compound 141, 5-(3-{2-tert-butyl-6-oxo-4H,5H,6H-thieno[2,3-c]pyrrol-5-yl}-4-fluoro-2-(hydroxymethyl)phenyl)-1-methyl-3-(pyrimidin-4-ylamino)-1,2-dihydropyridin-2-one] had an EC50 of 775 nM.
Regarding `CN1CCN(c2ccc(Nc3cc(-c4cccc(N5Cc6cc(C(C)(C)C)sc6C5=O)c4CO)cn(C)c3=O)nc2)CC1` [Compound 146, 5-(3-{2-tert-butyl-6-oxo-4H,5H,6H-thieno[2,3-c]pyrrol-5-yl}-2-(hydroxymethyl)phenyl)-1-methyl-3-{[5-(4-methylpiperazin-1-yl)pyridin-2-yl]amino}-1,2-dihydropyridin-2-one], the response was half-maximal at 28.9 nM (EC50).
`Cn1cc(-c2cccc(N3Cc4cc(C(C)(C)C)sc4C3=O)c2CO)nc(Nc2ccc(C3CCNCC3)cc2)c1=O` [Compound 152, 5-(3-{2-tert-butyl-6-oxo-4H,5H,6H-thieno[2,3-c]pyrrol-5-yl}-2-(hydroxymethyl)phenyl)-1-methyl-3-{[4-(piperidin-4-yl)phenyl]amino}-1,2-dihydropyrazin-2-one] had an EC50 of 306 nM. This EC50 lies about 11-fold higher than the previous one.
`Cn1cc(-c2cccc(N3Cc4cc(C(C)(C)C)sc4C3=O)c2CO)cc(Nc2cc3n(n2)CCOC3)c1=O` [Compound 154, 5-(3-{2-tert-butyl-6-oxo-4H,5H,6H-thieno[2,3-c]pyrrol-5-yl}-2-(hydroxymethyl)phenyl)-1-methyl-3-{4H,6H,7H-pyrazolo[3,2-c][1,4]oxazin-2-ylamino}-1,2-dihydropyridin-2-one] gave an EC50 of 149 nM.
With `Cc1cc(Nc2cc(-c3cccc(N4Cc5cc(C(C)(C)C)sc5C4=O)c3CO)cn(C)c2=O)n[nH]1` [Compound 157, 5-(3-{2-tert-butyl-6-oxo-4H,5H,6H-thieno[2,3-c]pyrrol-5-yl}-2-(hydroxymethyl)phenyl)-1-methyl-3-[(5-methyl-1H-pyrazol-3-yl)amino]-1,2-dihydropyridin-2-one], the response was half-maximal at 229 nM (EC50). Against the preceding compound, the EC50 is about 1.5-fold higher.
Consider `Cn1cc(-c2cccc(N3Cc4cc(C(C)(C)C)sc4C3=O)c2CO)nc(Nc2ccc(N3CCOCC3)cc2)c1=O` [Compound 160, 5-(3-{2-tert-butyl-6-oxo-4H,5H,6H-thieno[2,3-c]pyrrol-5-yl}-2-(hydroxymethyl)phenyl)-1-methyl-3-{[4-(morpholin-4-yl)phenyl]amino}-1,2-dihydropyrazin-2-one], for which the EC50 was found to be 153 nM. The EC50 values of the last two compounds are within 1.5-fold of each other.

The next assay has as its system production of CD69 by B lymphocytes in human whole blood activated with goat F(ab')2 anti-human IgM. Description: CD69 Whole Blood Assay. It counts as cell-based. The following applies: Lymphocyte, anti-IgM stimulation, 20 hours, CD69 positive of CD20 positive cells. From the text:
A CD69 Whole Blood Assay can be conducted on Formula I compounds to determine the ability of compounds to inhibit the production of CD69 by B lymphocytes in human whole blood activated by crosslinking surface IgM with goat F(ab′)2 anti-human IgM (Example 907).
Human blood is obtained from healthy volunteers, with the following restrictions: 1 week drug-free, non-smokers. Blood (approximately 20 mls to test 8 compounds) is collected by venipuncture into Vacutainer® (Becton, Dickinson and Co.) tubes with sodium heparin.
Solutions of Formula I compounds at 10 mM in DMSO are diluted 1:10 in 100% DMSO, then are diluted by three-fold serial dilutions in 100% DMSO for a ten point dose-response curve. The compounds are further diluted 1:10 in PBS and then an aliquot of 5.5 μl of each compound is added in duplicate to a 2 ml 96-well plate; 5.5 μl of 10% DMSO in PBS is added as control and no-stimulus wells. Human whole blood—HWB (100 μl) is added to each well. After mixing the plates are incubated at 37° C., 5% CO2, 100% humidity for 30 minutes. Goat F(ab′)2 anti-human IgM (10 μl of a 500 μg/ml solution, 50 μg/ml final) is added to each well (except the no-stimulus wells) with mixing and the plates are incubated for an additional 20 hours. At the end of the 20 hour incubation, samples are incubated with fluorescent labeled antibodies for 30 minutes, at 37° C., 5% CO2, 100% humidity. Include induced control, unstained and single stains for compensation adjustments and initial voltage settings. Samples are then lysed with PharM Lyse™ (BD Biosciences Pharmingen) according to the manufacturer's instructions. Samples are then transferred to a 96 well plate suitable to be run on the BD Biosciences HTS 96 well system on the LSRII machine. Data acquired and Mean Fluorescence Intensity values were obtained using BD Biosciences DIVA Software. Results are initially analyzed by FACS analysis software (Flow Jo). […] The IC50 values are calculated by Prism version 5, using a nonlinear regression curve fit.
For `Cn1cc(-c2cccc(N3Cc4cc(C(C)(C)C)ccc4C3=O)c2CO)cc(Nc2ccncn2)c1=O` [Compound 107, 5-tert-butyl-2-(2-(hydroxymethyl)-3-(1-methyl-6-oxo-5-(pyrimidin-4-ylamino)-1,6-dihydropyridin-3-yl)phenyl)isoindolin-1-one], the concentration for half-maximal inhibition (IC50) was determined as 605 nM.
`Cn1cc(-c2cccc(N3Cc4cc(C(C)(C)C)ccc4C3=O)c2CO)cc(Nc2cc(C3CC3)n[nH]2)c1=O` [Compound 110, 5-tert-butyl-2-(3-(5-(3-cyclopropyl-1H-pyrazol-5-ylamino)-1-methyl-6-oxo-1,6-dihydropyridin-3-yl)-2-(hydroxymethyl)phenyl) isoindolin-1-one] yielded an IC50 of 1100 nM. This IC50 is about 1.8-fold higher than that of the compound before.
Same read-out and setting: then `Cn1cc(-c2cccc(N3Cc4cc(C(C)(C)C)ccc4C3=O)c2CO)cc(Nc2ccn(CCO)n2)c1=O` [Compound 119], with 157 nM.
Still for that read-out and setting: then `CN1CCN(c2ccc(Nc3cc(-c4cccc(N5Cc6cc(C(C)(C)C)ccc6C5=O)c4CO)cn(C)c3=O)nn2)CC1` [Compound 122, 5-tert-butyl-2-(2-(hydroxymethyl)-3-(1-methyl-5-(6-(4-methylpiperazin-1-yl)pyridazin-3-ylamino)-6-oxo-1,6-dihydropyridin-3-yl)phenyl)isoindolin-1-one], with 185 nM; and `Cn1cc(-c2cccc(N3Cc4cc(C(C)(C)C)sc4C3=O)c2CO)cc(Nc2ccn(CCO)n2)c1=O` [Compound 139, 5-(3-{2-tert-butyl-6-oxo-4H,5H,6H-thieno[2,3-c]pyrrol-5-yl}-2-(hydroxymethyl)phenyl)-3-{[1-(2-hydroxyethyl)-1H-pyrazol-3-yl]amino}-1-methyl-1,2-dihydropyridin-2-one], with 42.6 nM.
Compound `Cn1cc(-c2cccc(N3Cc4cc(C(C)(C)C)sc4C3=O)c2CO)cc(Nc2ccc(N3CCOCC3)cn2)c1=O` [Compound 151, 5-(3-{2-tert-butyl-6-oxo-4H,5H,6H-thieno[2,3-c]pyrrol-5-yl}-2-(hydroxymethyl)phenyl)-1-methyl-3-{[5-(morpholin-4-yl)pyridin-2-yl]amino}-1,2-dihydropyridin-2-one] registered an IC50 of 112 nM.
In turn, `Cn1cc(-c2cccc(N3Cc4cc(C(C)(C)C)sc4C3=O)c2CO)nc(Nc2ccc(N3CCOCC3)cc2)c1=O` [Compound 160, 5-(3-{2-tert-butyl-6-oxo-4H,5H,6H-thieno[2,3-c]pyrrol-5-yl}-2-(hydroxymethyl)phenyl)-1-methyl-3-{[4-(morpholin-4-yl)phenyl]amino}-1,2-dihydropyrazin-2-one] yielded an IC50 of 116 nM.

What is called EC50 is the midpoint of the concentration-response curve. The low end stands for greater potency, the high end for weaker potency. One may read the IC50 as the concentration at which inhibition is half-maximal. A low value points to greater potency.

The values above are taken from patent publication US9249123B2, “Pyridinones/pyrazinones, method of making, and method of use thereof” (Genentech, Inc., priority 2010, dated 2016).
